How the values were obtained:
[1] = test system: retinal ganglion cells (RGCs); assay: RGC cell survival assay with murine purified RGCs, 3 days in culture (Calcein AM/Hoechst/Ethidium homodimer staining, Cellomics imager); format: cell-based, mouse; conditions: for RGC survival: purified mouse RGCs cultured 3 days with 25-5000 nM compound
Protocol: RGCs were purified from 2-5 day-old C57BL/6 mice, and cultured for 3 days in a media containing Neurobasal and B27, with or without 25-5000 nM of sunitinib (sun) or VX680. RGC survival was determined by combined staining with Calcein A M, Hoescht, and Ethidium homodimer. Images were acquired and analyzed with a Cellomics imager. Error bars: Mean±S.E.M.;
(§1) Purified mouse RGCs were cultured in the presence of sunitinib (0.5 μM), 25-5000 nM of VX680, JHU611 or JHU612, for 3 days. RGC survival was determined by combined staining with Calcein A M, Hoescht, and Ethidium homodimer. Images were acquired and analyzed with a Cellomics imager. Error bars: Mean±S.E.M.;
as §1, with “JHU609” for “JHU611”, “JHU610,” for “JHU612,”
as §1, with “JHU607” for “JHU611”, “JHU608,” for “JHU612,”, “days. The percentages of” for “days.”
RGCs were cultured with the indicated drug at the indicated concentration, cultured, and survival was monitored using a calcein AM assay with a Cellomics VTI imager (Thermo Scientific, 100 Technology Drive, Pittsburgh, Pa.) and image analysis software.

[2] = test system: primary murine retinal ganglion cells (RGCs); assay: RGC-based high content screen of small molecule libraries (CellTiter-Glo ATP, PI/Hoechst staining); format: cell-based, mouse; conditions: purified primary murine RGCs, CellTiter-Glo or PI/Hoechst
Protocol: Survival of purified mouse RGCs with increasing concentrations of VX680 (tozasertib) was determined by measuring cellular ATP levels with CellTiter-Glo (CTG), or by combined staining with Propidium iodide (PI) and Hoescht (Hoe) (PI/Hoe) (FIG. 8A). The efficacy in promoting primary mouse RGC survival by VX680 and NCGC00188382-01 was quantified and compared to sunitinib (FIGS. 8B and 8C).

[3] = test system: retinal ganglion cells (RGCs); assay: Time course of RGC cell survival with murine purified RGCs, up to 6 days in vitro; format: cell-based, mouse; conditions: for RGC survival: 6 days in vitro (DIV6), percent survival compared to zero time per FIG. 2 legend, Mean±S.E.M.
Protocol: FIG. 2 is a comparison of the relative efficacy of sunitinib, VX680 and neurotrophic factors in promoting RGC survival in vitro. […] Purified mouse RGCs were cultured in the presence of sunitinib (0.5 or 1 μM), VX680 (1 or 2 μM), and a combination of BDNF, CNTF, and GDNF, for up to 6 days. RGC survival (percent survival compared to zero time) was determined at the indicated day in vitro (DIV) (0, 1, 2, 3, and 6 DIV). Error bars: Mean±S.E.M.;
FIG. 3 is representative images showing the RGCs from the study described in FIG. 2;
For comparison, data from vehicle and BDNF/CNTF/GDNF also are shown.

[4] = test system: hippocampal neurons; assay: Hippocampal neuron survival against 3-nitropropionic acid (3-NP) induced cell death, MTT assay; format: cell-based; conditions: cell death induced by 3-NP, VX680 at 0.5, 1, 5 and 10 μM
Protocol: Cell death of hippocampal neurons was induced by the mitochondrial toxin 3-nitropropionic acid (3-NP). VX680 was added to the media at concentrations of 0.5 μM, 1 μM, 5 μM and 10 μM. Cell survival was determined using a MTT assay. The effect of VX680 on cell survival was analyzed with the student t-test. Error bars: Mean±S.D.; and […]

## Cc1cc(Nc2nc(Cl)nc(Sc3ccc(NC(=O)C4CC4)cc3)n2)n[nH]1 [JHU607, N-(4-(4-chloro-6-(5-methyl-1H-pyrazol-3-ylamino)-1,3,5-triazin-2-ylthio)phenyl)cyclopropanecarboxamide]
[1]
  RGC survival: promote RGC survival

## Cc1cc(Nc2nc(Sc3ccc(NC(=O)C4CC4)cc3)nc(N3CCNCC3)n2)n[nH]1 [JHU608, N-(4-(4-(5-methyl-1H-pyrazol-3-ylamino)-6-(piperazin-1-yl)-1,3,5-triazin-2-ylthio)phenyl)cyclopropanecarboxamide]
[1]
  RGC survival: promote RGC survival

## Cc1cc(Nc2nc(Sc3ccc(NC(=O)C4CC4)cc3)nc(N3CCOCC3)n2)n[nH]1 [JHU609, N-(4-(4-(5-methyl-1H-pyrazol-3-ylamino)-6-morpholino-1,3,5-triazin-2-ylthio)phenyl)cyclopropanecarboxamide]
[1]
  RGC survival: promote RGC survival

## Cc1cc(Nc2nc(Sc3ccc(NC(=O)C4CC4)cc3)nc(N3CCC(N4CCCC4)CC3)n2)n[nH]1 [JHU610, N-(4-(4-(5-methyl-1H-pyrazol-3-ylamino)-6-(4-(pyrrolidin-1-yl)piperidin-1-yl)-1,3,5-triazin-2-ylthio)phenyl)cyclopropanecarboxamide]
[1]
  RGC survival: promote RGC survival

## Cc1cc(Nc2nc(Sc3ccc(NC(=O)C4CC4)cc3)nc(N3CCC(O)CC3)n2)n[nH]1 [JHU611, N-(4-(4-(4-hydroxypiperidin-1-yl)-6-(5-methyl-1H-pyrazol-3-ylamino)-1,3,5-triazin-2-ylthio)phenyl)cyclopropanecarboxamide]
[1]
  RGC survival: promote RGC survival

## Cc1cc(Nc2nc(Sc3ccc(NC(=O)C4CC4)cc3)nc(N3CCCNCC3)n2)n[nH]1 [JHU612, N-(4-(4-(1,4-diazepan-1-yl)-6-(5-methyl-1H-pyrazol-3-ylamino)-1,3,5-triazin-2-ylthio)phenyl)cyclopropanecarboxamide]
[1]
  RGC survival: promote RGC survival

## CC(NCc1ccc2c(c1)nc(NC(=O)c1ccc(-c3cn[nH]c3)s1)n2CC(C)(C)O)C(C)(C)C (stereo not drawn) [NCGC00188382-01]
[2]
  RGC survival / neuroprotection in high content screen: neuroprotective compounds

## CCN(CC)CCNC(=O)c1c(C)[nH]c(/C=C2\C(=O)Nc3ccc(F)cc32)c1C [Sunitinib, sunitinib]
[3]; 0.5 μM
  RGC survival: 23.73 ± 1.17
[3]; 1 μM
  RGC survival: 26.37 ± 1.61

## Cc1cc(Nc2cc(N3CCN(C)CC3)nc(Sc3ccc(NC(=O)C4CC4)cc3)n2)[nH]n1 [VX-680, Tozasertib]
[3]; 1 μM
  RGC survival: 49.66 ± 2.27
[3]; 2 μM
  RGC survival: 60.32 ± 2.47
[3]; FIG. 2, time course 0-6 DIV
  neuroprotective activity compared with sunitinib and BDNF/CNTF/GDNF combination: exceeds that of sunitinib and a combination of brain derived neurotrophic factor (BDNF) ciliary neurotrophic factor (CNTF), and glial-derived neurotrophic factor (GDNF)
[1]; FIG. 1, murine purified RGCs
  therapeutic window compared with sunitinib: wider therapeutic window
[1]; FIG. 1, murine purified RGCs, calcein AM assay, sunitinib as positive control
  cell survival promoting activity compared with sunitinib: more potent cell survival promoting activity than sunitinib
[1]
  RGC survival: promotes retinal ganglion cell (RGC) survival in vitro
[4]
  survival of hippocampal neurons: promotes the survival of hippocampal neurons against mitochondrial injury and oxidative stress
[2]
  RGC survival / neuroprotection in high content screen: could promote the survival of cultured RGCs
[2]; listed as VX680
  RGC survival / neuroprotection in high content screen: neuroprotective compounds

Reference: patent publication US9382229B2, “Compounds and methods of use thereof for treating neurodegenerative disorders” (THE JOHNS HOPKINS UNIVERSITY, priority 2011, dated 2016)
